This is an account of results in US5912230A, “Anti-fungal and anti-bacterial histatin-based peptides” (priority 1998, dated 1999).

pIC50: −log10 of the molar value. Like-named read-outs stand apart in the source and are kept apart here. Where no end group is shown, it is not given here.

In test [1] the target is T1, Clostripain (Hathewaya histolytica, UniProt P09870).
T1 construct: purchased Sigma Chemical Corp., St. Louis, Mo
Briefly: clostripain assay (BAPNA hydrolysis). To be noted: for IC50: read-out: Clostripain: IC50 (μM) for inhibition of Clostripain. In kind it is biochemical, Clostridium histolyticum. Here is the method: (§1) Clostripain from Clostridium histolyticum (Sigma Chemical Corp., St. Louis, Mo.) was dissolved in deionized water to a concentration of 1 mg/mL (300 units/mg) and activated with the addition of 10 mmol/L DTT. To measure its hydrolytic activity, clostripain (6 units) was added to […] Hepes buffer, pH 7.5, containing 80 gmol/L BAPNA (benzoyl-arginine-p-nitroanilide), together with 5.6 μmol/L of histatin peptide inhibitor. As controls, assays were performed in the absence of any histatin peptide inhibitor. The activity was monitored continuously at 405 nm using a Molecular Devices VMax microtitre plate reader. The activities were determined from the maximum rates of substrate hydrolysis. Assays were done in duplicate, and the means normalized to the controls.

Test [2] concerns C. albicans blastoconidia. The following applies: for C. albicans: % killing at 50 μM dose (scoring): highest response seen used in the scoring; for anti-fungal (fungicidal) activity, in words: C. albicans blastoconidia; for C. albicans: LD50 (μM) for % killing: blastoconidia, 1 h at 37° C., pH 7.4. An excerpt:
C. albicans is a dimorphic yeast. It can exist in a yeast or blastoconidial form, which upon germination develops into the hyphal or germinated form. While the germinated form is considered to be more invasive, most of the C. albicans isolates harvested from the oral cavities of healthy individuals appear to be in the blastoconidial form. (Arendorf, T. M. et al. (1980), Arch. Oral Biol. 25:1-10; Gow, N.A.R. et al. (1987), Criti. Rev. Microbiol. 15:73-78; Odds, F. C. (1988), Candida and Candidosis, 2nd ed., Bailliere Tindall, London, England). Anti-fungal activity of synthetic histatin 5, histatin-based peptide 113, peptides based on portions of the amino acid sequences of histatin-based peptide 113 and peptides derived from histatin-based peptide 113 with specified amino acid substitutions was measured in assays designed to test the effectiveness of the peptides against the blastoconidia form of Candida (Table 1). These assays, which measure killing of blastoconidia of C. albicans, are described in Xu et al., which is herein incorporated by reference. (Xu, T. et al. (1991), Infect. Immun. 59(8):2549-2554).
A well-described strain of C. albicans was used in the bioassay. This strain, ATCC 44505, was originally isolated from the human oral cavity. Cultures were stored at 4° C. on Sabouraud dextrose agar plates (Difco Laboratories, Detroit, Mich.) until use. Stationary phase growth cells were obtained following growth at 30° C. for 18 h on Sabouraud dextrose agar plates. Colonies were harvested and suspended in 10 mM potassium phosphate buffer (PPB), pH 7.4.
To initiate log phase growth, an aliquot of stock C. albicans was suspended in Sabouraud dextrose broth (Difco) and incubated at 30° C. in a shaking water bath. The growth phase was determined by taking aliquots of the culture at one hour intervals to monitor the optical density (O.D.) at 560 nm. […] Log phase cells were harvested and utilized in the blastoconidia killing assay in a manner identical to that described for stationary phase cells. A final concentration of 10^5 cells/ml (either stationary or log phase fungus) was used in all assays.
The standard suspension buffer utilized in the blastospore killing assay was 0.01M PPB, pH 7.4. An alternate suspension buffer, N-2-hydroxyethylpiperazine-N'-2-ethanesulfonic acids (HEPES; Sigma Chemical Co., St. Louis, Mo.), pH 7.4, can also be utilized.
a. For the killing of blastoconidia assay, 50 μl aliquots of cells (2×10^5 cells/ml) diluted in suspension buffer were allowed to attach to a polystyrene 96-well micro-titer plate (COSTAR, Cambridge, Mass.) for 15 min at room temperature, and then incubated with an equal volume of a histatin or histatin peptide in suspension buffer for 1 h at 37° C. Controls were carried out in the absence of the histatin or histatin peptide. After incubation, wells were washed three times by centrifugation at 1,000 xg for 5 min and covered with aliquots of molten Sabouraud dextrose broth (Difco) containing 2% agarose (Sigma) at 45° C. The plate was then incubated at 30° C. for 8 h. Under such conditions, live cells will divide and begin to form colonies, while dead cells will remain as single cells. To determine the percentage of blastoconidia killed, a total of 100 single cells and/or colonies were counted under a Nikon inverted microscope at 400× magnification and the extent of killing was calculated using the formula: [1-(number of colonies in treated sample)/(number of colonies in control)]×100%.
Data were obtained by calculating the mean and standard deviation from triplicate assays.

The target of test [3] is T2, Clostripain (Hathewaya histolytica, UniProt P09870).
T2 construct: purchased Sigma Chemical Corp., St. Louis, Mo
T2 sequence (P09870 whole entry, looked up): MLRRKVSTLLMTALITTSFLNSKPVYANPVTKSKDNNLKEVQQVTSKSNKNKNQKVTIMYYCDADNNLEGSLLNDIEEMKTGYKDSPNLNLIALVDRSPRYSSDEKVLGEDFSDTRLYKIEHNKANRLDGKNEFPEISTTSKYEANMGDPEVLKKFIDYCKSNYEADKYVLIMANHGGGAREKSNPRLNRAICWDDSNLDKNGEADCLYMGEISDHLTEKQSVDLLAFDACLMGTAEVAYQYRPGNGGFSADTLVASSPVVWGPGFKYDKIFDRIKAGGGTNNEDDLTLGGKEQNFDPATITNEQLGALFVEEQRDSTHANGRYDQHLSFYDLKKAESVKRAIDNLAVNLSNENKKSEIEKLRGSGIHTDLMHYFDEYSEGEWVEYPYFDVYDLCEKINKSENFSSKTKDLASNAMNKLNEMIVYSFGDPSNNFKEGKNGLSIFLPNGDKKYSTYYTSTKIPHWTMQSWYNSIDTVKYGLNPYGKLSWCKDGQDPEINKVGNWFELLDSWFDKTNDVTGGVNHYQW
In words: clostripain assay (BAPNA hydrolysis). In kind it is biochemical, Clostridium histolyticum. Here is the method: as §1

As for AKRHHGYKR [peptide 120], in test [1], the pIC50 is less than 4.30 and the “clostripain inhibition, in words” value was “clostripain inhibition effects”. For the same substance, in test [2], the “C. albicans: % killing at 50 μM dose (scoring)” value (“C. albicans: % killing” for short) was “++ (++20-50%)” and the “anti-fungal (fungicidal) activity, in words” value was “C. albicans blastoconidia killing”.
As for AKRHHGYKRK [peptide 119], in test [1], the pIC50 is less than 4.30 and the “clostripain inhibition, in words” value is given as “clostripain inhibition effects”. Moreover, in test [2], the “C. albicans: % killing” value is on record as “++ (++20-50%)” and the “anti-fungal (fungicidal) activity, in words” value is reported as “C. albicans blastoconidia killing”.
On to AKRHHGYKRKF [peptide 118], for which, in test [1], the pIC50 was 4.35 and the “clostripain inhibition, in words” value is recorded as “clostripain inhibition effects”. In test [2], the “C. albicans: % killing” value is “++++ (++++80-100%)” and the “anti-fungal (fungicidal) activity, in words” value is on record as “C. albicans blastoconidia killing”.
As to AKRHHGYKRKFH [peptide 113], in test [1], the “clostripain inhibition, in words” value is “clostripain inhibition effects” and the IC50 came to 25 µM. Further, the “C. albicans: LD50 (μM) for % killing” value in test [2] amounted to 5.8 µM. For the same substance, in test [2] (pH 4.0), the “anti-fungal activity at pH 4.0, in words” value is listed as “essentially devoid of anti-fungal activity”.
Regarding “His 11: histatin 11 (SEQ ID NO: 11), subpeptide of peptide 113 (KRHHGYKR)”, in test [3], the “clostripain inhibition, in words” value is reported as “clostripain inhibition effects”. The “C. albicans: % killing” value in test [2] was “+ (+<20%)”.
For KRHHGYKRKF [peptide 129], in test [1], the “clostripain inhibition, in words” value is recorded as “clostripain inhibition effects” and the IC50 is 19 µM. Besides, the “C. albicans: LD50 (μM) for % killing” value in test [2] was 27 µM.
On to “peptide 117: subpeptide of peptide 113 (SEQ ID NO: 19) (KRHHGYKRKFH)”, for which the “clostripain inhibition, in words” value in test [3] was “clostripain inhibition effects”. Besides, in test [2], the “C. albicans: % killing” value is listed as “++++ (++++80-100%)” and the “anti-fungal (fungicidal) activity, in words” value is “C. albicans blastoconidia killing”.
